Laboratory results published in PubChem BioAssay AID1918938 (Molecular Pharmacology Branch, DTP, NCI, 2023).
Values joined by “and” are separate entries in the source; they are usually repeats but may differ in a detail not shown here. Identical values can stand only once.

Test system: 556581-035-R-J1-PDC complex spheroid viability
Assay: Anticancer human tumor 556581-035-R-J1-PDC patient-derived ovarian carcinoma cell line growth inhibition
Conditions: for viability, T/C: stronger effect = lower value
Text: Multicellular complex tumor spheroid response to LSD1 Inhibitor Iadademstat in combination with a variety of drugs and investigational agents in selected tumor cell lines
The current study was undertaken to assess response to LSD1 inhibitors in combination with standard-of-care drugs and investigational agents in solid tumor complex spheroid models as well as in the K-562 leukemia. Complex spheroids include a stromal component modeled by human endothelial cells (HUVEC) and fibroblasts modeled by human mesenchymal stem cells (MSCs). The concentration ranges selected for each drug and investigational agent were based upon clinically achievable concentrations if the clinical Cmax of the agent was known.
Compounds. The drugs and investigational agents used in this study are listed on Table 1. All of the agents used, including staurosporine (NSC755774) and gemcitabine (NSC613327), were obtained from the Developmental Therapeutics Program, NCI. FDA-approved anticancer drugs are available from the NCI at http://dtp.nci.nih.gov/branches/dscb/oncology_drugset_explanation.html. Drugs and investigational agents were >95% pure by proton nuclear magnetic resonance (NMR) and liquid chromatography/mass spectrometry (LC/MS). Stock solutions were prepared at 400x in DMSO, stored at -70 degrees C, and diluted in fresh medium prior to their use. The final concentration of DMSO in cell culture wells never exceeded 0.25% (v/v). The FDA-approved anticancer drug set is available from the Developmental Therapeutics Program at https://dtp.cancer.gov/organization/dscb/obtaining/available_plates.htm. All drugs and investigational agents were tested over a range starting from a high concentration at or near the clinical Cmax and decreasing in half-log increments. If the clinical Cmax for an agent had not been determined, the highest concentration tested was 10 microM.
Cell Lines. The patient-derived cancer cell (PDC) lines: 292921-168-R-J2-PDC, K24384-001-R-PDC, and 521955-158-R2-J5-PDC pancreatic carcinomas, 556581-035-R-J1 ovarian carcinoma, 324938-238-R-J1-PDC, 855422-203-R-J1-PDC and 883617-216-R-J1-PDC urothelial bladder carcinomas, 743489-274-T-PDC renal cell carcinoma, 138582-R-J1 Merkel cell tumor, K60290-347-R-J1 and K57222-313-R-J1-PDC glioblastomas, 653999-131-R-J2-PDC, LG0703-F948-PDC, and 349418-098-R-PDC non-small cell lung carcinomas, 885512-296-R-J2-PDC, 171881-019-R-J1-PDC breast carcinomas and 186277-243-T-J2-PDC and 233499-124-R-J2-PDC colon carcinomas were obtained from the NCI Patient-Derived Models Repository (PDMR, https://pdmr.cancer.gov). The established cell lines NCI/ADR-RES (RRID:CVCL_14520 and OVCAR-5 (RRID:CVCL_1628) ovarian carcinomas, 786-O (RRID:CVCL_1051) and A498 (RRID:CVCL_A498) renal cell carcinoma, NCI-H211 (ATCC, cat. CRL-5824; RRID:CVCL_1529), NCI-H196 (ATCC, cat. CRL-5823, RRID:CVCL_1509), SW 1271 (ATCC, cat. CRL-2177, RRID:CVCL_1716) and NCI-H1876 (ATCC, cat. CRL-5902, RRID:CVCL_1503) small cell lung carcinomas, MDA-MB-231 (RRID:CVCL_0062) and MDA-MB-468 (RRID:CVCL_0419)breast carcinomas (10-12). Pooled donor human umbilical vein endothelial cells (HUVEC, Lonza, cat. CC-2519) and human mesenchymal stem cells (hMSC, Lonza, cat. PT-2501) were purchased from Lonza (Walkersville, MD).
Cell Culture. All cells were maintained in an incubator at 37 degrees C and 5% CO2 with 95% humidity. The PDC lines were cultured according to standard operating procedures established by the NCI PDMR (https://pdmr.cancer.gov). Briefly all PDCs were thawed and cultured in Matrigel-coated flasks prepared with a working solution of 1X Ham's F-12 nutrient mix, without supplementation (Invitrogen, Waltham, MA, cat. 11765054), 100 U/mL penicillin-streptomycin (Invitrogen, cat. 15140122), and 2.5% Matrigel (Corning Inc., Corning, NY, cat. 354248) for the first three passages. […]
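Also: spheroids exposed to agents for seven days.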
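For viability, T/C in this document: 100% = DMSO vehicle control wells.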

Compound	IC50 (curve of compound)	viability, T/C (compound 0.0316 µM)	viability, T/C (compound 0.1 µM)	viability, T/C (compound 0.316 µM)	viability, T/C (compound 1 µM)	viability, T/C (compound 0.00949 µM)	viability, T/C (compound 0.03 µM)	viability, T/C (compound 0.0949 µM)	viability, T/C (compound 0.3 µM)	also measured
NC1CC1c1ccc(-c2cccc(O)c2)cc1 (centres undefined)			91.5% [middle of 4 runs]							viability, T/C (compound 3.16 µM): 89.2% [middle of 24 runs]; IC50 (compound alone, run of 02/21/2022): > 10000 nM
NC1CCC(NC2CC2c2ccccc2)CC1 (centres undefined)				85.1% and 84.9%						IC50 (compound alone, run of 02/15/2022): > 10000 nM
NS(=O)(=O)OCC1CC(n2ccc3c(NC4CCc5ccccc54)ncnc32)CC1O (centres undefined)	> 3000 nM and 407 nM					121% and 104%	122% and 77%	111% and 74%	106% and 51.3%	viability, T/C (compound 0.949 µM): 91.9% and 37.8%; viability, T/C (compound 3 µM): 56.7% and 38%
Nc1ccn(C2OC(CO)C(O)C2(F)F)c(=O)n1 (centres undefined)	2.64 nM and 1.98 nM					36% and 23.9%	36.7% and 26.2%	40.7% and 26.8%	35.3% and 23.3%	viability, T/C (compound 0.000949 µM): 73.7% and 82.5%; viability, T/C (compound 0.003 µM): 48.6% and 31.7%
Nc1ncn(C2CC(O)C(CO)O2)c(=O)n1 (centres undefined)	> 1000 nM	108% and 99.9%	84.2% and 79.4%	88.6% and 107%	80.9% and 101%					viability, T/C (compound 0.00316 µM): 98.7% and 115%; viability, T/C (compound 0.01 µM): 102% and 100%
Nc1ncn(C2CC(O)C(CO)S2)c(=O)n1 (centres undefined)	184 nM and 48 nM					94.5% and 81.4%	75.4% and 63.8%	56.8% and 32.5%	45.3% and 17.8%	viability, T/C (compound 0.000949 µM): 92.4% and 104%; viability, T/C (compound 0.003 µM): 110% and 102%
O=C(c1cc(Cc2n[nH]c(=O)c3ccccc23)ccc1F)N1CCN(C(=O)C2CC2)CC1	> 10000 nM	95.3% and 96.8%	94.3% and 94.5%	98.2% and 89.4%	98.1% and 89.3%					viability, T/C (compound 3.16 µM): 87.5% and 78.2%; viability, T/C (compound 10 µM): 75.2% and 64.5%

Second part, led by results:

IC50 (curve of compound)	Compound	viability, T/C (compound 0.0316 µM)	viability, T/C (compound 0.1 µM)	viability, T/C (compound 0.316 µM)	viability, T/C (compound 1 µM)	viability, T/C (compound 0.00949 µM)	viability, T/C (compound 0.03 µM)	viability, T/C (compound 0.0949 µM)	viability, T/C (compound 0.3 µM)	also measured
993 nM and 1070 nM	COc1ccc([C@@H](O)c2cc(-c3ncnc4cc(N5CCOCC5)ccc34)c(F)cc2Cl)nn1	91.9% and 89.7%	83.5% and 83.2%	66.5% and 63.4%	50.3% and 48.7%					viability, T/C (compound 3.16 µM): 36.8% and 42.1%; viability, T/C (compound 10 µM): 29.6% and 27.5%
> 100 nM	Cn1ncnc1C1c2n[nH]c(=O)c3cc(F)cc(c23)NC1c1ccc(F)cc1 (centres undefined)	93.6% and 103%	98.9% and 91.4%							viability, T/C (compound 0.000316 µM): 102% and 114%; viability, T/C (compound 0.001 µM): 118% and 97.2%; viability, T/C (compound 0.00316 µM): 105% and 86.9%; viability, T/C (compound 0.01 µM): 108% and 86.5%
133 nM and 97.8 nM	Nc1ccccc1NC(=O)c1ccc(CNC(=O)OCc2cccnc2)cc1					88.5% and 100%	82% and 76.7%	56.3% and 50.2%	30.6% and 28.9%	viability, T/C (compound 0.949 µM): 13.6% and 7.68%; viability, T/C (compound 3 µM): 1.18% and 0.51%
111 nM and 68.4 nM	O=C(C=Cc1cccc(S(=O)(=O)Nc2ccccc2)c1)NO					88.8% and 89.7%	77.9% and 83.8%	54.2% and 35.2%	23.9% and 15.3%	viability, T/C (compound 0.949 µM): 1.68% and 0.7%; viability, T/C (compound 3 µM): 0.32% and 3.39%
329 nM and 67.6 nM	O=C(C=Cn1cnc(-c2cc(C(F)(F)F)cc(C(F)(F)F)c2)n1)NNc1cnccn1	83.4% and 74%	68.8% and 37.2%		15.9% and 3.46%					viability, T/C (compound 0.00316 µM): 84.8%; viability, T/C (compound 0.01 µM): 82.9% and 87.8%
